Results as given in patent US20050095287A1, “Fosinopril composition” (priority 2003, published 2005).

Assay: Solubility of the active drug (statement)
Assay type: physicochemical

solubility: highly soluble
SMILES: CCC(=O)O[C@@H](O[P@](=O)(CCCCc1ccccc1)CC(=O)N1C[C@H](C2CCCCC2)C[C@H]1C(=O)O)C(C)C [Fosinipril, Fosinopril]
